# Like-named read-outs stand apart in the source and are kept apart here.
# How the values were obtained:
# Assay type in all cases: biochemical
# [1] = biological target: T1, aggrecanase-1 (Homo sapiens, UniProt O75173); test: Aggrecanase-1 inhibitory action (Particle Assay, GAG release from aggrecan-containing polyacrylamide particles)
# T1 sequence (O75173 213-837): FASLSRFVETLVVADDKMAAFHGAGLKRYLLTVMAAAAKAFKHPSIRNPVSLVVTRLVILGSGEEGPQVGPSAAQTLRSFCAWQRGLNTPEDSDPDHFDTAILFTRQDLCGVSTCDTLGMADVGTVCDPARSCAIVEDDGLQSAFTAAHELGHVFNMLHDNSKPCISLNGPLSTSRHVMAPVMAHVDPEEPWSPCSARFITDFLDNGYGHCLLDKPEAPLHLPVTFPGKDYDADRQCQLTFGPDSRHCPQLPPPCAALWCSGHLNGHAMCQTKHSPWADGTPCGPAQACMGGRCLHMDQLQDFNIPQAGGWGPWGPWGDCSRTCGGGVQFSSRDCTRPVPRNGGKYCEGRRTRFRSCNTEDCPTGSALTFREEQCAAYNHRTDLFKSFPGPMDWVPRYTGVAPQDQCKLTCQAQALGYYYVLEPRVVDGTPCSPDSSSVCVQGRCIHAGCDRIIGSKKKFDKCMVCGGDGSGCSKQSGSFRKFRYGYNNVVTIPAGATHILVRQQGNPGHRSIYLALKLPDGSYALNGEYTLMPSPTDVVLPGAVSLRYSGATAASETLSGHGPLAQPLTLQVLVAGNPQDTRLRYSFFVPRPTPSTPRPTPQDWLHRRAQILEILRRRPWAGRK
# Method in brief: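 Enzyme and compound incubated with aggrecan-containing polyacrylamide particles in Tris-HCl buffer at 37° C for 15 h. Released GAG in supernatant measured with 1,9-dimethylmethylene blue at 595 nm against chondroitin sulfate standard; % inhibition from enzyme-free and inhibitor-free wells, reported as TC50 (μM).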
# [2] = biological target: T2, MMP-1 (Homo sapiens, UniProt P03956); test: MMP-1 inhibitory action (Type I collagen Activity Measurement kit, FITC-labeled collagen type I)
# T2 sequence (P03956 100-469): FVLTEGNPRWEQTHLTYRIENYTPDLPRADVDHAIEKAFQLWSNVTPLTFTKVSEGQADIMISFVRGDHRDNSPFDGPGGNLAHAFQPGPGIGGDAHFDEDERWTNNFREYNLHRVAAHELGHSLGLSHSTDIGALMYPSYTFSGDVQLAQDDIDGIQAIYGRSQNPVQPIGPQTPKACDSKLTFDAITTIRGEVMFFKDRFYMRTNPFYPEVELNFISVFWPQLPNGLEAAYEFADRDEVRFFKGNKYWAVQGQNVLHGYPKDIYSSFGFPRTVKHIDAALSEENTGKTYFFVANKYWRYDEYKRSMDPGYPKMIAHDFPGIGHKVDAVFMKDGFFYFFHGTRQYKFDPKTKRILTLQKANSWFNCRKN
# [3] = biological target: T3, Recombinant Human MMP-13 (Homo sapiens, UniProt P45452); test: MMP-13 inhibitory activity (MMP-13 specific fluorescent substrate with quencher)
# T3 construct: purchased R&D systems 511-MM
# Method in brief: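 Recombinant human MMP-13 with test compound, reaction started with quenched fluorogenic peptide 7-MCA-Pro-CHA-Gly-NVal-His-Ala-DPA in Tris-HCl buffer, 1 h at 25 °C, stopped with acetic acid. Fluorescence at Ex 325/Em 405 nm; % inhibition versus enzyme-free and inhibitor-free wells, reported as IC50 (μM).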
# [4] = Experimental Example 1, read-out: IC50 AG1
# [5] = Experimental Example 2, read-out: IC50 MMP1
# [6] = Experimental Example 3, read-out: IC50 MMP13
# [7] = aggrecanase-1 inhibitory action, read-out: IC50 AG1 (Experimental Example 1)
# [8] = MMP-1 inhibitory action, FITC-labeled collagen type I, 37° C. for 3 hr, read-out: IC50 MMP1 (Experimental Example 2)
# [9] = Recombinant Human MMP-13, fluorescent substrate, 25° C. for 1 h, read-out: IC50 MMP13 (Experimental Example 3)
"IC50 [1, 4] [nM]","IC50 [2, 5] [nM]","IC50 [3, 6] [nM]","IC50 [1, 7] [nM]","IC50 [2, 8] [nM]","IC50 [3, 9] [nM]",SMILES
< 1000,≥ 10000,≥ 1000,–,–,–,CC1[C@H](c2ccccc2)[C@]1(NS(=O)(=O)N1CCCN(c2ccc(Cl)cn2)CC1)C(=O)O (stereo partly drawn) [Example 2-461]
< 1000,< 1000,< 100,–,–,–,CCOC(=O)CSCC1(c2ccccc2)CC1(NS(=O)(=O)c1ccc(-c2cc(C(F)(F)F)on2)s1)C(=O)O (stereo not drawn) [Example 2-409]
–,–,–,≥ 10000,≥ 10000,≥ 10000,O=C(O)C1(NS(=O)(=O)N2CCN(Cc3ccccc3)CC2)CC1c1ccccc1 (stereo not drawn) [Example 2-158]
< 100,< 100,< 100,–,–,–,CC1[C@H](c2ccccc2)[C@]1(NS(=O)(=O)c1ccc(-n2cc(S(C)(=O)=O)cn2)s1)C(=O)O (stereo partly drawn) [Example 2-524]
–,–,–,< 100,≥ 10000,< 1000,CN(C)C(=O)c1ccccc1C1CC1(NS(=O)(=O)c1ccc(-c2ccc(Cl)cc2)s1)C(=O)O (stereo not drawn) [Example 2-215]
–,–,–,< 100,≥ 1000,< 100,O=C(NCCc1cccc(C2CC2(NS(=O)(=O)c2ccc(-c3cc(C(F)(F)F)on3)s2)C(=O)O)c1)N1CCOCC1 (stereo not drawn) [Example 2-259]
–,–,–,< 1000,≥ 1000,< 100,COCc1cc(-c2ccc(S(=O)(=O)N[C@@]3(C(=O)O)C[C@@H]3c3ccccc3)s2)no1 [Example 2-110]
–,–,–,< 100,≥ 1000,< 100,"O=C(O)C1(NS(=O)(=O)c2ccc(-c3ccc(Cl)cc3)s2)C2CCCc3ccccc3C21 (stereo not drawn) [Example 2-8, (1R*,1aS*,8bS*)-1-[5-(4-chloro-phenyl)thiophene-2-sulfonylamino]-1,1a,2,3,4,8b-hexahydrobenzo[a]cyclopropane[c]cyclohepten-1-carboxylic acid]"
–,–,–,< 100,≥ 1000,< 1000,O=C(O)C1(NS(=O)(=O)c2ccc(-c3ccc(Cl)cc3)s2)CC1c1ccccc1OCCO (stereo not drawn) [Example 1-138]
–,–,–,< 1000,≥ 10000,< 1000,O=C(O)C1(NS(=O)(=O)c2ccc(-c3ccc(Cl)cc3)s2)CC1C1CCCC1 (stereo not drawn) [Example 2-61]
< 1000,≥ 1000,< 1000,–,–,–,O=C(OCC1(c2ccccc2)CC1(NS(=O)(=O)c1ccc(-c2cc(C(F)(F)F)on2)s1)C(=O)O)N1CCOCC1 (stereo not drawn) [Example 2-306]
–,–,–,< 1000,≥ 10000,≥ 1000,C[C@]1(c2ccccc2)C[C@@]1(NS(=O)(=O)c1ccc(-c2cc(C(F)(F)C(F)(F)F)on2)s1)C(=O)O [Example 2-112]
< 100,< 1000,< 100,–,–,–,CC1[C@H](c2ccccc2)[C@]1(NS(=O)(=O)c1ccc(-c2cc(N(C)C)on2)s1)C(=O)O (stereo partly drawn) [Example 2-419]
≥ 1000,≥ 1000,≥ 1000,–,–,–,CC1[C@H](c2ccccc2)[C@]1(NS(=O)(=O)c1cn2cc(Cn3cc(Cl)cn3)nc2s1)C(=O)O (stereo partly drawn) [Example 2-520]
≥ 1000,≥ 1000,≥ 1000,–,–,–,CC1[C@H](c2ccccc2)[C@]1(NS(=O)(=O)N1CCC(Oc2cccc(Cl)c2)C1)C(=O)O (stereo partly drawn) [Example 2-501]
–,–,–,< 1000,≥ 1000,< 1000,O=C(O)C1(NS(=O)(=O)c2ccc(-c3ccc(F)cc3)s2)CC1c1ccccc1 (stereo not drawn) [Example 2-21]
–,–,–,< 1000,≥ 10000,< 1000,O=C(O)C1(NS(=O)(=O)c2ccc(-c3ccc(Cl)cc3)cc2)CC1c1cccc(-c2ccccc2)c1 (stereo not drawn) [Example 1-26]
< 1000,≥ 1000,< 1000,–,–,–,O=C(CO)NCC1(c2ccccc2)CC1(NS(=O)(=O)c1ccc(-c2ccc(Cl)cc2)s1)C(=O)O (stereo not drawn) [Example 2-399]
